Data: paper PMC10313921, “A living ex vivo platform for functional, personalized brain cancer diagnosis” (Cell Reports Medicine, 2023)
pEC50, pIC50: −log10 of the molar value.

What was measured:
Assay type in all cases: cell-based, human
[1] = test system: PIS patient tumor tissue (intracranial sarcoma); experiment: Drug screening of uncultured patient tumor tissue PIS on OBSCs; settings: Homo sapiens; PIS on OBSCs; dose required to kill 90% of the tumor
Experimental: (§1) Tumor cells were seeded onto OBSCs 2h after slicing as described above. One day after tumor seeding, six concentrations of each drug were diluted in the media underneath each culture insert, or XRad was applied using an X-Rad 320 Precision X-ray machine (n = 4 tumor foci per concentration; n ≥ 24 tumor foci per drug per cell line). Three days after treatment, the bioluminescence of live tumor cells was measured using an AMI optical imager (Spectral Instruments) and dose-response curves were generated. Tumor survival was normalized to day one tumor fluorescence and compared to an untreated control group.
(§2) To engraft onto OBSCs, the cryopreserved/thawed or fresh brain tumor tissue was filtered through a 100 μm cell strainer. Each 50 mg of tissue was transfected with 1mL mcherry-FLuc Lentivirus at 1.5e7 vg/ml with 1μL polybrene for 4h at 37°C. After incubation, the brain tumor tissue was washed with PBS three times to remove the residual virus and reconstituted in PBS with a final volume of 150 μL. Then the tissue solution was engrafted atop OBSCs at ∼0.5 mg tissue in 3 μL of PBS on each hemisphere of the slice. The OBSC engrafted with patient tumor tissue was incubated at 37°C with 5% CO2 and 95% humidity. The BSM was changed after 24h and subsequently every 3 days. Tumor treatment studies were executed as described above for tumor lines. The viability of the patient tissue was measured by an AMI optical imaging system with the addition of 1.5 mg/mL luciferin underneath the culture insert.
(§3) Several weighted parameters were factored into an overall drug sensitivity score.
(§4) For DSS parameters 1–6, therapeutic windows were calculated by comparing OBSC toxicity and tumor response at the doses where tumor kill passed through the DSS parameter (Table S1 and S3). For DSS parameter 7, the therapeutic window was calculated by comparing the slopes through the tumor EC50 and the OBSC tox EC50. For DSS parameter 8, the therapeutic window was calculated by comparing the areas under tumor kill and OBSC tox curves. Normalized therapeutic window ratios for DSS parameters 1–8 within each drug-tumor-OBSC interaction were calculated in the following manner: within each window, values ranged from +1 to −1, where values approaching +1 signify increasing tumor kill relative to normal tissue toxicity, and values approaching −1 indicate agents where tumors remained highly viable while toxicity to the normal OBSC tissue was elevated. DSS parameters 9–11 were determined based on the behavior of the tumor in response to the drug, as defined above.
(§5) All individually weighed parameters were added together to generate the DSS. Overall DSS from 0 to 100 signify increasing efficacy in tumor kill relative to OBSC toxicity, while scores from 0 to −100 describe scenarios in which tumors thrive more effectively than OBSCs for a given treatment. Dose-response values were calculated via linear interpolation of raw data, not from best-fit curve equations.

[2] = test system: MB231Br (breast cancer metastasis to brain); experiment: Drug screening of MB231Br tumor foci on OBSCs
[3] = test system: 7 cell lines (MB231Br, LN229, U373WT, U373KO, GBM8, MS21, PDIPG); experiment: Drug screening on OBSCs, summary over the panel of seven tumor lines
Summary of the method: (§6)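 Tumor foci (25,000 cells) were seeded onto organotypic brain slice cultures 2 h after slicing, two per slice; one day later six drug concentrations were added to the medium or X-ray was applied. Bioluminescence was read 3 days after treatment, normalized to day-one fluorescence and to untreated controls.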

[4] = test system: LN229 (established GBM line); experiment: Drug screening of LN229 tumor foci on OBSCs
Summary of the method: as §6

[5] = test system: U373KO (RAD18 knockout of U373WT via CRISPR); experiment: Drug screening of U373KO tumor foci on OBSCs; settings: U373 KO on OBSCs
Summary of the method: as §6

[6] = test system: GBM8 (high-passage patient-derived GBM line); experiment: Drug screening of GBM8 tumor foci on OBSCs
Summary of the method: as §6

[7] = test system: MS21 (low-passage patient-derived GBM line); experiment: Drug screening of MS21 tumor foci on OBSCs
Summary of the method: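 Drug effects on tumor foci grown on brain slices are quantified by bioluminescence three days after treatment, relative to untreated foci and day-one fluorescence. Efficacy versus slice toxicity is combined into a weighted drug sensitivity score.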

[8] = test system: PGBM-R patient tumor tissue (recurrent tumor from same patient as PGBM); experiment: Drug screening of uncultured patient tumor tissue PGBM-R on OBSCs; settings: PGBM-R relative to PGBM
Experimental: as §1, §2, §3, §4, §5

[9] = test system: U373WT (wild-type established GBM line); experiment: Drug screening of U373WT tumor foci on OBSCs; settings: U373 WT on OBSCs
Summary of the method: as §6

[10] = test system: PDIPG (low-passage pediatric patient-derived line); experiment: Drug screening of PDIPG tumor foci on OBSCs
Summary of the method: as §6

[11] = area under the dose-response curve, trapezoidal rule
[12] = dose required to kill 10% of the tumor
[13] = dose required to kill 25% of the tumor
[14] = dose required to kill 75% of the tumor
[15] = Homo sapiens, U373 MG, dose required to kill 50% of the tumor
[16] = Homo sapiens, U373 MG, dose required to kill 90% of the tumor
[17] = Homo sapiens, U373 MG, dosed day 1, survival via bioluminescence day 4, linear interpolation

Nc1ncn([C@@H]2O[C@H](CO)[C@@H](O)[C@H]2O)c(=O)n1 [Azacitidine]
EC90 [1]: > 10 µM | pEC50 ([2]; Homo sapiens, MB231BR on OBSCs, dose required to kill 50% of the tumor): 3.68 | EC90 ([2]; Homo sapiens, MB231BR on OBSCs, dose required to kill 90% of the tumor): 906 µM | pIC50 ([2]; Homo sapiens, MB231Br on OBSCs, dosed day 1, survival via bioluminescence day 4, linear interpolation): 3.68 | Killing at highest dose ([2]; MB231BR on OBSCs): 9.50E-01 fraction of tumor population killed | AUC ([2]; MB231BR on OBSCs, area under the dose-response curve, trapezoidal rule): 3.36E+02 | EC10 ([2]; MB231BR on OBSCs, dose required to kill 10% of the tumor): 4.76 µM | EC25 ([2]; MB231BR on OBSCs, dose required to kill 25% of the tumor): 18.9 µM | EC75 ([2]; MB231BR on OBSCs, dose required to kill 75% of the tumor): 625 µM | Slope ([2]; MB231BR on OBSCs, slope through the EC50): -1.20E-03 | pIC50 ([3]; Homo sapiens, read-out: IC50 values, range over the cell lines): 3.40 to 3.70 | response / killing over the 7 cell lines ([3]; number of lines responding): 7 of 7 | Killing at highest dose [4]: 8.60E-01 fraction of tumor population killed | pEC50 ([4]; Homo sapiens, LN-229, dose required to kill 50% of the tumor): 3.40 | EC90 ([4]; Homo sapiens, LN-229, dose required to kill 90% of the tumor): > 10 µM | pIC50 ([4]; Homo sapiens, LN-229, dosed day 1, survival via bioluminescence day 4, linear interpolation): 3.40 | AUC [4, 11]: 4.51E+02 | EC10 [4, 12]: 28.9 µM | EC25 [4, 13]: 45.6 µM | EC75 [4, 14]: 817 µM | Slope ([4]; slope through the EC50): -6.00E-04 | pEC50 [5, 15]: 3.80 | EC90 [5, 16]: > 10 µM | pIC50 [5, 17]: 3.80 | Killing at highest dose [5]: 8.30E-01 fraction of tumor population killed | AUC [5, 11]: 3.39E+02 | EC10 [5, 12]: 23.8 µM | EC25 [5, 13]: 44.5 µM | EC75 [5, 14]: 647 µM | Slope ([5]; slope through the EC50): -1.73E-03 | Killing at highest dose ([6]; GBM8 on OBSCs): 1.00E+00 fraction of tumor population killed | AUC ([6]; GBM8 on OBSCs, area under the dose-response curve, trapezoidal rule): 4.08E+01 | EC10 ([6]; GBM8 on OBSCs, dose required to kill 10% of the tumor): 8.33 µM | EC25 ([6]; GBM8 on OBSCs, dose required to kill 25% of the tumor): 18.1 µM | EC75 ([6]; GBM8 on OBSCs, dose required to kill 75% of the tumor): 49.4 µM | Slope ([6]; GBM8 on OBSCs, slope through the EC50): -1.60E-02 | pEC50 ([6]; Homo sapiens): 4.47 | EC90 ([6]; Homo sapiens): 83.3 µM | pIC50 ([6]; Homo sapiens): 4.47 | pEC50 ([7]; Homo sapiens): 3.09 | EC90 ([7]; Homo sapiens): > 10 µM | pIC50 ([7]; Homo sapiens): 3.09 | Killing at highest dose ([7]; MS21 on OBSCs): 5.50E-01 fraction of tumor population killed | AUC ([7]; MS21 on OBSCs, area under the dose-response curve, trapezoidal rule): 6.06E+02 | EC10 ([7]; MS21 on OBSCs, dose required to kill 10% of the tumor): 31.5 µM | EC25 ([7]; MS21 on OBSCs, dose required to kill 25% of the tumor): 90.9 µM | Slope ([7]; MS21 on OBSCs, slope through the EC50): -2.80E-04 | increase of DSS in the recurrent tumor [8]: 96 points | pEC50 [9, 15]: 3.10 | EC90 [9, 16]: > 10 µM | pIC50 [9, 17]: 3.10 | Killing at highest dose [9]: 5.40E-01 fraction of tumor population killed | AUC [9, 11]: 5.88E+02 | EC10 [9, 12]: 61.1 µM | EC25 [9, 13]: 81.9 µM | Slope ([9]; slope through the EC50): -2.00E-04 | pEC50 ([10]; Homo sapiens): 3.35 | EC90 ([10]; Homo sapiens): > 10 µM | pIC50 ([10]; Homo sapiens): 3.35 | Killing at highest dose ([10]; PDIPG on OBSCs): 6.40E-01 fraction of tumor population killed | AUC ([10]; PDIPG on OBSCs, area under the dose-response curve, trapezoidal rule): 5.03E+02 | EC10 ([10]; PDIPG on OBSCs, dose required to kill 10% of the tumor): 3.7 µM | EC25 ([10]; PDIPG on OBSCs, dose required to kill 25% of the tumor): 9.26 µM | Slope ([10]; PDIPG on OBSCs, slope through the EC50): -2.53E-04
